Measurements: patent US4363805A, “Aminodesoxy-1.4;3.6-dianhydrohexitol nitrates and pharmaceutical composition” (Firma Willmar Schwabe, priority 1980, dated 1982)

Assays:
narcotised guinea pigs = experiment: Blood pressure experiments on guinea pigs, i.v.; type: in vivo, guinea pig
[1] = test system: isolated guinea pig hearts; experiment: Experiments on Langendorff hearts (coronary flowthrough, inotropism, frequency); settings: Cavia porcellus, read-out: flowthrough, percentage change with regard to the initial value
Procedure: After reaching the stationary state in the 30th minute, the hearts were each perfused with 50 ml. tyrode solution with a content of test substance of, in each case, 25 μg./ml. Each test substance was tested on 3-6 hearts.
In each case, there was measured the inotropism, the flowthrough and the frequency, whereby the values given in Table I are average values of the percentage changes in comparison with the initial values.

mongrel cats = experiment: Inotropic and heart-circulatory effectiveness on narcotised cats, intravenous; type: in vivo, cat; settings: 6 animals; for blood pressure before / dp/dt (inotropism) before / heart frequency before: before administration

Row | SMILES | activation at 25 µg/mL [1] [%] | blood pressure before (mongrel cats; 0.25 mg/kg i.v.) [mm.Hg] | dp/dt (inotropism) before (mongrel cats; 0.25 mg/kg i.v.) [mm.Hg/sec] | heart frequency before (mongrel cats; 0.25 mg/kg i.v.) [min⁻¹] | blood pressure WD (mongrel cats; 0.25 mg/kg i.v.) [min] | blood pressure after (mongrel cats; 0.25 mg/kg i.v.) [mm.Hg] | blood pressure Δ (mongrel cats; 0.25 mg/kg i.v.) [mm.Hg] | dp/dt (inotropism) after (mongrel cats; 0.25 mg/kg i.v.) [mm.Hg/sec] | dp/dt (inotropism) Δ (mongrel cats; 0.25 mg/kg i.v.) [mm.Hg/sec] | dp/dt WD (mongrel cats; 0.25 mg/kg i.v.) [min] | heart frequency after (mongrel cats; 0.25 mg/kg i.v.) [min⁻¹] | heart frequency Δ (mongrel cats; 0.25 mg/kg i.v.) | blood pressure WD (mongrel cats; 0.50 mg/kg i.v.) [min] | blood pressure after (mongrel cats; 0.50 mg/kg i.v.) [mm.Hg] | blood pressure Δ (mongrel cats; 0.50 mg/kg i.v.) [mm.Hg] | dp/dt (inotropism) after (mongrel cats; 0.50 mg/kg i.v.) [mm.Hg/sec] | dp/dt (inotropism) Δ (mongrel cats; 0.50 mg/kg i.v.) [mm.Hg/sec] | dp/dt WD (mongrel cats; 0.50 mg/kg i.v.) | heart frequency after (mongrel cats; 0.50 mg/kg i.v.) [min⁻¹] | heart frequency Δ (mongrel cats; 0.50 mg/kg i.v.) | further results
1 | CCN[C@H]1CO[C@H]2[C@@H]1OC[C@@H]2O[N+](=O)[O-] [10 b] | 25.9 |  |  |  |  |  |  |  |  |  |  |  |  |  |  |  |  |  |  |  | blood pressure after (narcotised guinea pigs; 0.25 mg/kg i.v.): 37.25 ± 2.06 mm.Hg; blood pressure Δ (narcotised guinea pigs; 0.25 mg/kg i.v.): -6.00 mm.Hg; blood pressure before (narcotised guinea pigs; 0.25 mg/kg i.v., before administration): 43.25 ± 2.21 mm.Hg; blood pressure after (narcotised guinea pigs; 1.00 mg/kg i.v.): 32.00 ± 2.04 mm.Hg; blood pressure Δ (narcotised guinea pigs; 1.00 mg/kg i.v.): -11.25 mm.Hg; blood pressure after (narcotised guinea pigs; 2.50 mg/kg i.v.): 27.25 ± 1.60 mm.Hg; blood pressure Δ (narcotised guinea pigs; 2.50 mg/kg i.v.): -15.50 mm.Hg
2 | CN(CCCOc1ccccc1)[C@H]1CO[C@H]2[C@@H]1OC[C@@H]2O[N+](=O)[O-] [Example 34, 5-[N-Methyl-N-(3-phenoxypropyl)-amino]-5-desoxy-1.4;3.6-dianhydro-L-iditol 2-nitrate] | 50 | 95.2 | 5333 | 180.3 | 4.1 | 73.7 | -21.5 | 4650 | -683 | 2.8 | 179.3 | -1.0 min⁻¹ | 4.2 | 74.8 | -24.2 | 4683 | -817 | 3,7 min | 178.0 | -1.0 min⁻¹ | blood pressure WD (mongrel cats; 1.00 mg/kg i.v.): 6.5 min; blood pressure after (mongrel cats; 1.00 mg/kg i.v.): 74.5 mm.Hg; blood pressure Δ (mongrel cats; 1.00 mg/kg i.v.): -30.8 mm.Hg; dp/dt (inotropism) after (mongrel cats; 1.00 mg/kg i.v.): 4400 mm.Hg/sec; dp/dt (inotropism) Δ (mongrel cats; 1.00 mg/kg i.v.): -1033 mm.Hg/sec; dp/dt WD (mongrel cats; 1.00 mg/kg i.v.): 4.2 min; heart frequency after (mongrel cats; 1.00 mg/kg i.v.): 172.0 min⁻¹; heart frequency Δ (mongrel cats; 1.00 mg/kg i.v.): -3.0 min⁻¹; blood pressure WD (mongrel cats; 2.50 mg/kg i.v.): > 9.0 min; blood pressure after (mongrel cats; 2.50 mg/kg i.v.): 69.2 mm.Hg; blood pressure Δ (mongrel cats; 2.50 mg/kg i.v.): -39.7 mm.Hg; dp/dt (inotropism) after (mongrel cats; 2.50 mg/kg i.v.): 3850 mm.Hg/sec; dp/dt (inotropism) Δ (mongrel cats; 2.50 mg/kg i.v.): -1450 mm.Hg/sec; dp/dt WD (mongrel cats; 2.50 mg/kg i.v.): > 6.5 min; heart frequency after (mongrel cats; 2.50 mg/kg i.v.): 158.0 min⁻¹; heart frequency Δ (mongrel cats; 2.50 mg/kg i.v.): -15.0 min⁻¹
3 | O=[N+]([O-])O[C@H]1CO[C@H]2[C@@H]1OC[C@H]2NCC(O)COc1cccc2ccccc12 (stereo partly drawn) [Example 55, 5-[2-Hydroxy-3-(1-naphthyloxy)-propylamino]-5-desoxy-1.4;3.6-dianhydro-D-glucitol 2-nitrate] | 203 | 113.8 | 5633 | 161.7 | 4.8 | 107.0 | -6.8 | 5200 | -433 | 4.2 | 164.7 | +3.0 min^-1 | 2.8 | 98.8 | -12.7 | 4667 | -533 | 5.2 min | 157.3 | +2.0 min^-1 | blood pressure WD (mongrel cats; 1.00 mg/kg i.v.): 5.2 min; blood pressure after (mongrel cats; 1.00 mg/kg i.v.): 96.8 mm.Hg; blood pressure Δ (mongrel cats; 1.00 mg/kg i.v.): -18.2 mm.Hg; dp/dt (inotropism) after (mongrel cats; 1.00 mg/kg i.v.): 4000 mm.Hg/sec; dp/dt (inotropism) Δ (mongrel cats; 1.00 mg/kg i.v.): -1117 mm.Hg/sec; dp/dt WD (mongrel cats; 1.00 mg/kg i.v.): 8.9 min; heart frequency after (mongrel cats; 1.00 mg/kg i.v.): 154.0 min⁻¹; heart frequency Δ (mongrel cats; 1.00 mg/kg i.v.): -1.3 min⁻¹; blood pressure WD (mongrel cats; 2.50 mg/kg i.v.): 6.3 min; blood pressure after (mongrel cats; 2.50 mg/kg i.v.): 94.3 mm.Hg; blood pressure Δ (mongrel cats; 2.50 mg/kg i.v.): -26.0 mm.Hg; dp/dt (inotropism) after (mongrel cats; 2.50 mg/kg i.v.): 3517 mm.Hg/sec; dp/dt (inotropism) Δ (mongrel cats; 2.50 mg/kg i.v.): -1266 mm.Hg/sec; dp/dt WD (mongrel cats; 2.50 mg/kg i.v.): > 7.8 min; heart frequency after (mongrel cats; 2.50 mg/kg i.v.): 148.0 min⁻¹; heart frequency Δ (mongrel cats; 2.50 mg/kg i.v.): 0 min⁻¹
